# Results as given in patent publication US5294603A, “Pharmaceutical compositions containing didemnins” (The Board of Trustees of The University of Illinois, priority 1992, dated 1994).
# Assays:
# [1] = test system: L1210 murine leukemia cells; details: Table 9
# [2] = earlier work of Gloer; cited from earlier work
# Visna virus (VIV) = assay type: cell-based; details: Table 9, 0.1 μg/mL
# [3] = earlier work, Rinehart et al. 1988; cited from earlier work
smiles,measurement,setting,value
"CC[C@H](C)[C@@H]1NC(=O)[C@@H](NC(=O)[C@H](CC(C)C)N(C)C(C)=O)[C@H](C)OC(=O)[C@H](Cc2ccc(OC)cc2)N(C)C(=O)[C@@H]2CCCN2C(=O)[C@H](CC(C)C)NC(=O)[C@@H](C)C(=O)[C@H](C(C)C)OC(=O)C[C@@H]1OC(C)=O [Diacetyldidemnin A (32), N,O-Diacetyldidemnin A]",Cytotoxicity L1210 IC50,[1],0.015 mg/L
same,cytotoxicity compared with Compound 1,[2],weaker cytotoxicity than Compound 1
same,VIV Protection,Visna virus (VIV),< 0%
same,antiviral activity (in vitro),[3],improvement of the antiviral activity
